Series [1] deals with T1, YAP-TEAD interaction (full length human TEAD1-Gal4 fusion, full length YAP mutant S127A, S397A) (UniProt P04386+P28347).
T1 construct: The TEAD1 construct was prepared by cloning the full length human TEAD1 cDNA; expressed in transfected cells; host or cells: HEK293 GripTite 293 MSR (Invitrogen R795-07), transiently transfected with pSG5_CMV plasmids
Description: Cell-based TEAD-GAL4 transactivation assay (luciferase reporter, HEK293). Conditions: HEK293 cells, compounds 0.1 μM to 30 μM, 24 h, concentration that inhibited the luciferase activity by 50%. The procedure:
To identify inhibitors of YAP-TEAD interaction, a transient transactivation assays was carried out into HEK293 cell line (HEK293 GripTite™ 293 MSR (Invitrogen R795-07)) using plasmids containing the full length TEAD1 sequences, the full length YAP mutant (S127A, S397A) and a luciferase gene reporter. All expression constructs were performed into pSG5 backbone plasmid in which the SV40 promoter was replaced by the CMV promoter. The TEAD1 construct was prepared by cloning the full length human TEAD1 cDNA in fusion with the Gal4 DNA Binding Domain (AA 1-148) into pSG5_CMV to create the TEAD1(FL)_hum_pSG5Gal4_CMV. The full length YAP mutant (S127A, S397A) was also cloned into pSG_5 CMV to create the YAP(FL)_hum_pSG5_[…]. The reporter plasmid GAL4(5×RE)_[…]_pGL3-Basic contains 5 copies of the GAL4 responsive element (5′-TCGGAGGACAGTACTCC-3′) upstream of the thymidine kinase (TK) promoter (−105/+56) inserted in a pGL3-Basic vector. To evaluate the selectivity of our compounds in blocking the YAP-TEAD interaction, a counter-screening protein-protein interaction transactivation assays was also established. Briefly, two other expression plasmids, the pBD-P53 which express the P53 (AA 72-390) in fusion with Gal4 and the pAD-SV40T which express the SV40 large T antigen (AA 84-708,AgT), were created. HEK293 cells were seeded at 5×10^4 cells/well in 96 well plates (assay plates) in DMEM medium containing 4.5 g/L D-glucose, 10% high inactivated (HI) fetal bovine serum 1% Glutamax, 1% non-essential amino acid and 1% sodium pyruvate and 0.5% penicillin/streptomycin 37° C. in a humidified atmosphere of 8% CO2. After 24 h, transfections are performed using Jet-PEI as transfectant (101B-010 Polyplus Transfection), according to the instructions of the manufacturer (N/P=10) and a ratio YAP/TEAD=10 (per well: 50 ng of YAP(FL), 5 ng of TEAD(FL) and 50 ng of reporter plasmid). Six hours after cell transfection, the plates (‘assay plate’) were washed with 100 μl PBS per well and cell were treated with compounds in semi-log from 0.1 μM to 30 μM or DMSO 0.5% as control in DMEM 4.5 g/L D-Glucose without phenol red, 0.3% BSA, 1% glutamax, 1% NEAA, 1% sodium pyruvate. Twenty-four hours later, the luciferase activity was determined after addition of 100 μl of Steady Glo™ luciferase assay system (Promega E2550) according to the manufacturer's directions. Luciferase activity in cell extracts is measured by reading luminescence using the Envision device.
The cellular response was determined by fitting the concentration response curves using a 3-parameter curve fit equation and determining the concentration that inhibited the luciferase activity by 50%.
(In general: In a reporter assay the amount or activity of a reporter protein is the signal.)

In series [2] the test system is NCI-H2052 mesothelioma cell line. The series can be described thus: Inhibition of malignant mesothelioma tumor cell growth (EdU proliferation). Conditions: NF2 mutated cell line, 0.1-30 μM, FIG. 1. The class given is cell-based. The procedure: (§1) The tumor cell growth inhibitory activity of the YAP-TEAD interaction inhibitors was evaluated in NCI-H2052 mesothelioma cell line harboring a NF2 mutation. This cell line was selected based on its mutational status and the ability of a siRNA directed against YAP, TAZ or TEAD1-4 to inhibit cell proliferation. The nuclear localization of YAP at confluence was also taken into account. Based on these observations we were able to classify several “YAP dependent cells” where YAP is clearly nuclear and in which a cell growth inhibition is observed by using siRNA (NCI-H2052, SKOV-3, ACHN, A549) and the “YAP independent cells” where YAP is preferentially located in the cytoplasm and in which no inhibition of cell growth is observed by using a siRNA (SW620, Met-5a). […] After one day growth in the starvation medium, cells were incubated with compounds. The starting concentration was 30 μM and serial dilutions in DMSO and medium were performed until 0.1 μM to achieve a final DMSO concentration of 0.5%. The cells were then allowed to grow for 3 days, and then, EdU (Invitrogen, Molecular Probe) was added in each well at a final concentration of 10 μM and the cells were returned to the incubator for additional 24 h. Starvation medium was removed and 100 μl of PFA 4% containing Hoechst dye was adding in each well to fix the cells. Plates were then incubated at rt for 15 minutes, washed twice with PBS and the cells were permeabilized by adding 100 μl per well of triton-100 containing 0.3% BSA. After 20 minutes cells were washed with PBS and the EdU detection was performed according to the instructions of the manufacturer. Image acquisition was performed using the ImageXpress Micro and analysed using the MetaXpress software (Molecular Device).
(§2) Results were expressed as a percent of inhibition (%) of the cell proliferation values obtained with 0.5% DMSO treatment alone. The cellular response was determined by fitting the concentration response curves using a 3 parameter curve fit equation and determining the concentration that inhibited cell growth between 50% and 100%.

The next series deals with Met5A cell line. The series can be described thus: Cell proliferation in YAP-independent cell line (EdU). The class given is cell-based. Particulars: FIG. 1. The procedure:
as §1, §2

T1 sequence (P04386+P28347 fused, stated change not applied): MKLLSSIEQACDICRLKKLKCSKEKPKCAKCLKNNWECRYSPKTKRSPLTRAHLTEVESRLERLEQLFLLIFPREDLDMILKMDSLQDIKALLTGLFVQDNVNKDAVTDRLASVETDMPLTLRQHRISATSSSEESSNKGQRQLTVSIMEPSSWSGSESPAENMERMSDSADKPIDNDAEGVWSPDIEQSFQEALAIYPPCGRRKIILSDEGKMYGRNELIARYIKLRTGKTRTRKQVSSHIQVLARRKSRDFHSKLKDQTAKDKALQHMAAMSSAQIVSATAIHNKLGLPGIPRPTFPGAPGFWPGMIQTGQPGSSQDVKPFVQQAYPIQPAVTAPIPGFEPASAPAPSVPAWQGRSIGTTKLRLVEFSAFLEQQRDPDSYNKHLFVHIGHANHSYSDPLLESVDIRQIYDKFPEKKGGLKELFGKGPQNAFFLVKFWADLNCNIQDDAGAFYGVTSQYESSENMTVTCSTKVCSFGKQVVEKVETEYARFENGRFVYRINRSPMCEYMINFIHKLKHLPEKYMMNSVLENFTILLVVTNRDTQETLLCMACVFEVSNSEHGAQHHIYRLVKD

The term IC50 denotes the concentration needed to halve the response being measured. High values mean a need for much substance, low ones inhibition by little substance. In series [1], `CN(/N=C/c1ccc2[nH]c(=O)n(C3CCC3)c2c1)C1=NS(=O)(=O)c2ccccc21` [Ex 28, 3-cyclobutyl-5-[(E)-[(1,1-dioxo-1,2-benzothiazol-3-yl)-methyl-hydrazono]methyl]-1H-benzimidazol-2-one] gave an IC50 of 3.06 µM. Also, the “NCI-H2052 mesothelioma cell proliferation” value in series [2] is “inhibited NCI-H2052 mesothelioma cell proliferation”. Also, the “effect on proliferation of Met5A cell line” value (shortened to “effect on proliferation”) in the series on Met5A cell line is “without showing any effect”.
One may read the melting point as the temperature, or range, at which the solid turns liquid. Take `CC1NC(=O)c2ccc(/C=N/N(C)C3=NS(=O)(=O)c4ccccc43)cc21` (stereo not shown) [Ex 31, 5-[(E)-[(1,1-dioxo-1,2-benzothiazol-3-yl)-methyl-hydrazono]methyl]-3-methyl-isoindolin-1-one]: the melting point was > 298 °C.
On the same count and under the same terms, as for `CN(/N=C/c1ccc2c(c1)C(C)(C)NC2=O)C1=NS(=O)(=O)c2ccccc21` [Ex 32, 5-[(E)-[(1,1-dioxo-1,2-benzothiazol-3-yl)-methyl-hydrazono]methyl]-3,3-dimethyl-isoindolin-1-one], the figure is > 295 °C.
The same measure, in the same setting: under `CN(/N=C/c1ccc2c(c1)C(C)(C)C(=O)N2)C1=NS(=O)(=O)c2ccccc21` [Ex 33, 5-[(E)-[(1,1-dioxo-1,2-benzothiazol-3-yl)-methyl-hydrazono]methyl]-3,3-dimethyl-indolin-2-one] stands > 300 °C; under `CCC1(CC)C(=O)Nc2ccc(/C=N/N(C)C3=NS(=O)(=O)c4ccccc43)cc21` [Ex 34, 5-[(E)-[(1,1-dioxo-1,2-benzothiazol-3-yl)-methyl-hydrazono]methyl]-3,3-diethyl-indolin-2-one], 288 to 289 °C.
`CN(/N=C/c1ccc2[nH]nnc2c1)C1=NS(=O)(=O)c2ccccc21` [Ex 35, N-[(E)-1H-benzotriazol-5-ylmethyleneamino]-N-methyl-1,1-dioxo-1,2-benzothiazol-3-amine]: the melting point lay in the range of 313 to 315 °C.
Regarding `CN(/N=C/c1ccc(F)c(Cl)n1)C1=NS(=O)(=O)c2ccccc21` [Ex 37, N-[(E)-(6-chloro-5-fluoro-2-pyridyl)methyleneamino]-N-methyl-1,1-dioxo-1,2-benzothiazol-3-amine], the melting point lay in the range of 219 to 221 °C.
In turn, `COc1cc(/C=N/N(CCc2ccccc2)C2=NS(=O)(=O)c3ccccc32)ccc1F` [Ex 46, N-[(E)-(4-fluoro-3-methoxy-phenyl)methyleneamino]-1,1-dioxo-N-(2-phenylethyl)-1,2-benzothiazol-3-amine] had a melting point of 256 to 258 °C.
`COc1cc(/C=N/N(C)C2=NS(=O)(=O)c3cc(B(O)O)ccc32)ccc1F` [Ex 50, [3-[[(E)-(4-fluoro-3-methoxy-phenyl)methyleneamino]-methyl-amino]-1,1-dioxo-1,2-benzothiazol-6-yl]boronic acid] came in with an IC50 in series [1] of 3.03 µM. Moreover, the “NCI-H2052 mesothelioma cell proliferation” value in series [2] is recorded as “inhibited NCI-H2052 mesothelioma cell proliferation”. In the series with Met5A cell line, the “effect on proliferation” value is “without showing any effect”.
Molecule `COc1cc(/C=N/N(C)C2=NS(=O)(=O)c3cc(O)ccc32)ccc1F` [Ex 51, 3-[[(E)-(4-fluoro-3-methoxy-phenyl)methyleneamino]-methyl-amino]-1,1-dioxo-1,2-benzothiazol-6-ol] returned a melting point of 258 °C.
`COCCOc1ccc2c(c1)C(N(C)/N=C/c1ccc(F)c(OC)c1)=NS2(=O)=O` [Ex 56, N-[(E)-(4-fluoro-3-methoxy-phenyl)methyleneamino]-5-(2-methoxyethoxy)-N-methyl-1,1-dioxo-1,2-benzothiazol-3-amine]: the melting point is 200 °C. Moreover, in series [1], inhibition was half-maximal at 2.31 µM (IC50).
In turn, `CN(/N=C/c1cnc(N2CCC2)s1)C1=NS(=O)(=O)c2ccccc21` [Ex 61, N-[(E)-[2-(azetidin-1-yl)thiazol-5-yl]methyleneamino]-N-methyl-1,1-dioxo-1,2-benzothiazol-3-amine] gave a melting point of 256 to 258 °C.
Molecule `COc1cc(/C=N/N(C)C2=NS(=O)(=O)c3cc(B4OC(=O)CN(C)CC(=O)O4)ccc32)ccc1F` [Ex 68, 2-[3-[[(E)-(4-fluoro-3-methoxy-phenyl)methyleneamino]-methyl-amino]-1,1-dioxo-1,2-benzothiazol-6-yl]-6-methyl-1,3,6,2-dioxazaborocane-4,8-dione] yielded an IC50 in series [1] of 4.5 µM. In addition, the “NCI-H2052 mesothelioma cell proliferation” value in series [2] is “inhibited NCI-H2052 mesothelioma cell proliferation”. Also, the “effect on proliferation” value with Met5A cell line is reported as “without showing any effect”.
`CN(/N=C/c1ccc(F)c(OC(F)(F)F)c1)C1=NS(=O)(=O)c2ccccc21` [Ex 78, N-[(E)-[4-fluoro-3-(trifluoromethoxy)phenyl]methyleneamino]-N-methyl-1,1-dioxo-1,2-benzothiazol-3-amine] yielded a melting point of 230 to 280 °C.
Molecule `CCN(/N=C/c1ccc2c(c1)C(C)(C)NC2=O)C1=NS(=O)(=O)c2ccccc21` [Ex 85, 5-[(E)-[(1,1-dioxo-1,2-benzothiazol-3-yl)-ethyl-hydrazono]methyl]-3,3-dimethyl-isoindolin-1-one] displayed a melting point of 289 to 291 °C.
`COc1cc(/C=N/N(CC(C)(C)CO)C2=NS(=O)(=O)c3ccccc32)ccc1F` [Ex 108, 3-[(1,1-dioxo-1,2-benzothiazol-3-yl)-[(E)-(4-fluoro-3-methoxy-phenyl)methyleneamino]amino]-2,2-dimethyl-propan-1-ol]: the melting point lay in the range of 207 to 208 °C.
With `Cc1ncc(/C=N/N(C)C2=NS(=O)(=O)c3ccccc32)s1` [Ex 118, N-methyl-N-[(E)-(2-methylthiazol-5-yl)methyleneamino]-1,1-dioxo-1,2-benzothiazol-3-amine], the melting point worked out at 248 °C. In series [1], this molecule showed an IC50 of 3.97 µM.

Values taken from patent US20200115353A1, “NEW COMPOUNDS INHIBITORS OF THE YAP/TAZ-TEAD INTERACTION AND THEIR USE IN THE TREATMENT OF MALIGNANT MESOTHELIOMA” (INVENTIVA, priority 2017, published 2020).
